Source: patent US10947227B2, “Tricyclic heterocyclic compounds as sting activators” (Incyte Corporation, priority 2018, dated 2021)

System: IRF3 activation in THP-1 Dual Cells
Experiment: IRF3 activation assay in THP-1 Dual Cells (QUANTI-Blue readout)
Type: cell-based
Conditions: Homo sapiens, THP1-Dual, 24 h
Protocol: THP-1 Dual Cells (Invivogen) were maintained in RPMI1640 medium with addition of 10% FBS, 100 μg/ml zeocin, 10 μg/ml blasticidin. Cells were added in a 96-well flat bottom assay plate at 100,000 per well in 100 μL complete RPMI medium. Test compounds were prepared by serial dilution in complete RPMI medium and 100 μL test compounds were transferred to each corresponding well. The assay plate was incubated at 37° C., 5% CO2 for 24 hours. After the overnight incubation, 20 μL of the culture supernatants were collected, followed by addition of 180 μL of QUANTI-Blue (Invivogen) to assess IRF3 activity. The amount of IRF3 activation was assessed by reading the absorbance at 620-655 nm with a microplate reader 2 hours later. The culture supernatant from the untreated THP-1 cells was used as the negative control. To determine the NF-κB activation, another 20 μL of culture supernatant were transferred to a 96-well white plate, followed by addition of 50 μL of Quanti-Luc™ assay solution (Invivogen). The amount of NF-κB activation induced by the test compounds were determined by the luminescence above the untreated control. EC50 determination was performed by fitting the curve of percent control activity versus the log of the compound concentration using the GraphPad Prism 6.0 software.

Row | EC50 (Table 1, 24 hours incubation) [nM] | EC50 (Table 2, 24 hours incubation) [nM] | Compound
1 | < 1000 | 200 to 500 | CCn1nc(C)cc1C(=O)Nc1nc2cc(C(N)=O)cc(C)c2n1C/C=C/Cn1c2ccc(C(N)=O)cc2c2cc(C#N)c(-c3cc(C)nn3CC)nc21 [Example 25, (E)-9-(4-(5-carbamoyl-2-(1-ethyl-3-methyl-1H-pyrazole-5-carboxamido)-7-methyl-1H-benzo[d]imidazol-1-yl)but-2-en-1-yl)-3-cyano-2-(1-ethyl-3-methyl-1H-pyrazol-5-yl)-9H-pyrido[2,3-b]indole-6-carboxamide]
2 | < 1000 | 500 to 1000 | CCn1nc(C)cc1C(=O)Nc1nc2cc(C(N)=O)cc(C)c2n1C/C=C/Cn1c2ccc(C(N)=O)cc2c2cnc(-c3cc(C)nn3CC)c(C#N)c21 [Example 26, (E)-5-(4-(5-carbamoyl-2-(1-ethyl-3-methyl-1H-pyrazole-5-carboxamido)-7-methyl-1H-benzo[d]imidazol-1-yl)but-2-en-1-yl)-4-cyano-3-(1-ethyl-3-methyl-1H-pyrazol-5-yl)-5H-pyrido[4,3-b]indole-8-carboxamide]
3 | < 200 | < 50 | CCn1nc(C)cc1C(=O)Nc1nc2cc(C(N)=O)cc(OCCCN3CCOCC3)c2n1C/C=C/Cn1c2nc(-c3cc(C)nn3CC)ncc2c2cc(C(N)=O)cc(OCCCOC)c21 [Example 27, (E)-9-(4-(5-carbamoyl-2-(1-ethyl-3-methyl-1H-pyrazole-5-carboxamido)-7-(3-morpholinopropoxy)-1H-benzo[d]imidazol-1-yl)but-2-en-1-yl)-2-(1-ethyl-3-methyl-1H-pyrazol-5-yl)-8-(3-methoxypropoxy)-9H-pyrimido[4,5-b]indole-6-carboxamide]
4 | < 200 | < 50 | CCn1nc(C)cc1C(=O)Nc1nc2cc(C(N)=O)cc(O)c2n1C/C=C/Cn1c2nc(-c3cc(C)nn3CC)ncc2c2cc(C(N)=O)cc(OCCCOC)c21 [Example 28, (E)-9-(4-(5-carbamoyl-2-(1-ethyl-3-methyl-1H-pyrazole-5-carboxamido)-7-hydroxy-1H-benzo[d]imidazol-1-yl)but-2-en-1-yl)-2-(1-ethyl-3-methyl-1H-pyrazol-5-yl)-8-(3-methoxypropoxy)-9H-pyrimido[4,5-b]indole-6-carboxamide]
5 | – | < 50 | CCn1nc(C)cc1C(=O)Nc1nc2cc(C(N)=O)cc(OCCCC#N)c2n1C/C=C/Cn1c2nc(-c3cc(C)nn3CC)ncc2c2cc(C(N)=O)cc(OCCCOC)c21 [Example 29, (E)-9-(4-(5-carbamoyl-7-(3-cyanopropoxy)-2-(1-ethyl-3-methyl-1H-pyrazole-5-carboxamido)-1H-benzo[d]imidazol-1-yl)but-2-en-1-yl)-2-(1-ethyl-3-methyl-1H-pyrazol-5-yl)-8-(3-methoxypropoxy)-9H-pyrimido[4,5-b]indole-6-carboxamide]
6 | – | 50 to 200 | CCn1nc(C)cc1C(=O)Nc1nc2cc(C(N)=O)cc(OC(C)C)c2n1C/C=C/Cn1c2nc(-c3cc(C)nn3CC)ncc2c2cc(C(N)=O)cc(OCCCOC)c21 [Example 30, (E)-9-(4-(5-carbamoyl-2-(1-ethyl-3-methyl-1H-pyrazole-5-carboxamido)-7-isopropoxy-1H-benzo[d]imidazol-1-yl)but-2-en-1-yl)-2-(1-ethyl-3-methyl-1H-pyrazol-5-yl)-8-(3-methoxypropoxy)-9H-pyrimido[4,5-b]indole-6-carboxamide]
7 | – | 50 to 200 | CCn1nc(C)cc1C(=O)Nc1nc2cc(C(N)=O)cc(OCCCN3CCN(C)CC3)c2n1C/C=C/Cn1c2nc(-c3cc(C)nn3CC)ncc2c2cc(C(N)=O)cc(OCCCOC)c21 [Example 31, (E)-9-(4-(5-carbamoyl-2-(1-ethyl-3-methyl-1H-pyrazole-5-carboxamido)-7-(3-(4-methylpiperazin-1-yl)propoxy)-1H-benzo[d]imidazol-1-yl)but-2-en-1-yl)-2-(1-ethyl-3-methyl-1H-pyrazol-5-yl)-8-(3-methoxypropoxy)-9H-pyrimido[4,5-b]indole-6-carboxamide]
8 | – | < 50 | CCn1nc(C)cc1C(=O)Nc1nc2cc(C(N)=O)cc(OCCCO)c2n1C/C=C/Cn1c2ccc(C(N)=O)cc2c2cc(F)c(-c3cc(C)nn3CC)nc21 [Example 32, (E)-9-(4-(5-carbamoyl-2-(1-ethyl-3-methyl-1H-pyrazole-5-carboxamido)-7-(3-hydroxypropoxy)-1H-benzo[d]imidazol-1-yl)but-2-en-1-yl)-2-(1-ethyl-3-methyl-1H-pyrazol-5-yl)-3-fluoro-9H-pyrido[2,3-b]indole-6-carboxamide]
9 | – | 500 to 1000 | CCn1nc(C)cc1C(=O)Nc1nc2cc(C(N)=O)cc(OCCCN)c2n1C/C=C/Cn1c2nc(-c3cc(C)nn3CC)ncc2c2cc(C(N)=O)cc(OCCCOC)c21 [Example 33, (E)-9-(4-(7-(3-aminopropoxy)-5-carbamoyl-2-(1-ethyl-3-methyl-1H-pyrazole-5-carboxamido)-1H-benzo[d]imidazol-1-yl)but-2-en-1-yl)-2-(1-ethyl-3-methyl-1H-pyrazol-5-yl)-8-(3-methoxypropoxy)-9H-pyrimido[4,5-b]indole-6-carboxamide]
10 | – | < 50 | CCn1nc(C)cc1C(=O)Nc1nc2cc(C(N)=O)cc(OCCO)c2n1C/C=C/Cn1c2nc(-c3cc(C)nn3CC)ncc2c2cc(C(N)=O)cc(OCCCOC)c21 [Example 36, (E)-9-(4-(5-carbamoyl-2-(1-ethyl-3-methyl-1H-pyrazole-5-carboxamido)-7-(2-hydroxyethoxy)-1H-benzo[d]imidazol-1-yl)but-2-en-1-yl)-2-(1-ethyl-3-methyl-1H-pyrazol-5-yl)-8-(3-methoxypropoxy)-9H-pyrimido[4,5-b]indole-6-carboxamide]
11 | – | 200 to 500 | CCn1nc(C)cc1C(=O)Nc1nc2cc(C(N)=O)cc(OCCCNC(=O)[C@H](CC(=O)O)NC(=O)[C@H](CC(=O)O)NC(=O)[C@H](CCCNC(=N)N)NC(=O)[C@@H](N)CC(=O)O)c2n1C/C=C/Cn1c2nc(-c3cc(C)nn3CC)ncc2c2cc(C(N)=O)cc(OCCCOC)c21 [Example 37, (6S,9S,12S,15S)-15-amino-1-((5-carbamoyl-1-((E)-4-(6-carbamoyl-2-(1-ethyl-3-methyl-1H-pyrazol-5-yl)-8-(3-methoxypropoxy)-9H-pyrimido[4,5-b]indol-9-yl)but-2-en-1-yl)-2-(1-ethyl-3-methyl-1H-pyrazole-5-carboxamido)-1H-benzo[d]imidazol-7-yl)oxy)-6,9-bis(carboxymethyl)-12-(3-guanidinopropyl)-5,8,11,14-tetraoxo-4,7,10,13-tetraazaheptadecan-17-oic Acid]
12 | – | 50 to 200 | CCn1nc(C)cc1C(=O)Nc1nc2cc(C(N)=O)cc(OCCN3CCOCC3)c2n1C/C=C/Cn1c2nc(-c3cc(C)nn3CC)ncc2c2cc(C(N)=O)cc(OCCCOC)c21 [Example 38, (E)-9-(4-(5-carbamoyl-2-(1-ethyl-3-methyl-1H-pyrazole-5-carboxamido)-7-(2-morpholinoethoxy)-1H-benzo[d]imidazol-1-yl)but-2-en-1-yl)-2-(1-ethyl-3-methyl-1H-pyrazol-5-yl)-8-(3-methoxypropoxy)-9H-pyrimido[4,5-b]indole-6-carboxamide]
13 | – | < 50 | CCn1nc(C)cc1C(=O)Nc1nc2cc(C(N)=O)cc(OCCCNC(=O)OCCC(=O)O)c2n1C/C=C/Cn1c2nc(-c3cc(C)nn3CC)ncc2c2cc(C(N)=O)cc(OCCCOC)c21 [Example 39, (E)-3-(((3-((5-carbamoyl-1-(4-(6-carbamoyl-2-(1-ethyl-3-methyl-1H-pyrazol-5-yl)-8-(3-methoxypropoxy)-9H-pyrimido[4,5-b]indol-9-yl)but-2-en-1-yl)-2-(1-ethyl-3-methyl-1H-pyrazole-5-carboxamido)-1H-benzo[d]imidazol-7-yl)oxy)propyl)carbamoyl)oxy)propanoic Acid]
14 | – | < 50 | CCn1nc(C)cc1C(=O)Nc1nc2cc(C(N)=O)cc(OCCCNC(=O)OCC(=O)O)c2n1C/C=C/Cn1c2nc(-c3cc(C)nn3CC)ncc2c2cc(C(N)=O)cc(OCCCOC)c21 [Example 40, (E)-2-(((3-((5-carbamoyl-1-(4-(6-carbamoyl-2-(1-ethyl-3-methyl-1H-pyrazol-5-yl)-8-(3-methoxypropoxy)-9H-pyrimido[4,5-b]indol-9-yl)but-2-en-1-yl)-2-(1-ethyl-3-methyl-1H-pyrazole-5-carboxamido)-1H-benzo[d]imidazol-7-yl)oxy)propyl)carbamoyl)oxy)acetic Acid]
15 | – | < 50 | CCn1nc(C)cc1C(=O)Nc1nc2cc(C(N)=O)cc(OCCCNC(=O)NCC(=O)O)c2n1C/C=C/Cn1c2nc(-c3cc(C)nn3CC)ncc2c2cc(C(N)=O)cc(OCCCOC)c21 [Example 41, (E)-((3-((5-carbamoyl-1-(4-(6-carbamoyl-2-(1-ethyl-3-methyl-1H-pyrazol-5-yl)-8-(3-methoxypropoxy)-9H-pyrimido[4,5-b]indol-9-yl)but-2-en-1-yl)-2-(1-ethyl-3-methyl-1H-pyrazole-5-carboxamido)-1H-benzo[d]imidazol-7-yl)oxy)propyl)carbamoyl)glycine]
16 | – | 50 to 200 | CCn1nc(C)cc1C(=O)Nc1nc2cc(C(N)=O)cc(OCCCNC(=O)[C@@H](N)CC(=O)O)c2n1C/C=C/Cn1c2nc(-c3cc(C)nn3CC)ncc2c2cc(C(N)=O)cc(OCCCOC)c21 [Example 42, (S,E)-3-amino-4-((3-((5-carbamoyl-1-(4-(6-carbamoyl-2-(1-ethyl-3-methyl-1H-pyrazol-5-yl)-8-(3-methoxypropoxy)-9H-pyrimido[4,5-b]indol-9-yl)but-2-en-1-yl)-2-(1-ethyl-3-methyl-1H-pyrazole-5-carboxamido)-1H-benzo[d]imidazol-7-yl)oxy)propyl)amino)-4-oxobutanoic Acid]
